Patent US7608577B2, “Peptidyl ketones as inhibitors of DPIV” (OSI Pharmaceuticals, Inc., priority 2001, dated 2009)
Structures can show the parent of a compound that is named as a salt. Where two headings read alike, the source gives them in different places.

Legend:
[1] = target: porcine DPIV (Sus scrofa, UniProt P22411); assay: Determination of IC50 values against DPIV; format: biochemical; details: Gly-Pro-pNA 0.4 mM, APN, 30° C.
Experimental: 100 μl inhibitor stock solution was mixed with 100 μl buffer (HEPES pH7.6) and 20 μl diluted porcine DPIV and preincubated at 30° C. Reaction was started by addition of a mixture of 50 μl substrate (Gly-Pro-pNA, final concentration 0.4 mM) and 2 μl APN stock solution. Formation of the product pNA was measured at 405 nm and 30° C. over 10 min using the HTS 7000Plus plate reader (Perkin Elmer) and slopes were calculated. The final inhibitor concentrations ranged between 1 mM and 30 nM. For calculation of IC50 GraFit 4.0.13 (Erithacus Software) was used.

[2] = target: T1, dipeptidyl peptidase IV from porcine kidney (Sus scrofa, UniProt P22411); assay: Ki determination, DPIV inhibition (inhibitor released from prodrug by APN); format: biochemical; details: for Ki: porcine kidney DPIV, substrate Gly-Pro-pNA, APN added to release inhibitor, HEPES pH7.6; for T1/2 (half-life, from enzyme activity versus reaction time): same assay as Ki, unstable competitive inhibitor
T1 construct: dipeptidyl peptidase IV from porcine kidney with a specific activity against glycylprolyl-4-nitroaniline of 37.5 U/mg; from tissue; host or cells: porcine kidney
T1 sequence (P22411 whole entry): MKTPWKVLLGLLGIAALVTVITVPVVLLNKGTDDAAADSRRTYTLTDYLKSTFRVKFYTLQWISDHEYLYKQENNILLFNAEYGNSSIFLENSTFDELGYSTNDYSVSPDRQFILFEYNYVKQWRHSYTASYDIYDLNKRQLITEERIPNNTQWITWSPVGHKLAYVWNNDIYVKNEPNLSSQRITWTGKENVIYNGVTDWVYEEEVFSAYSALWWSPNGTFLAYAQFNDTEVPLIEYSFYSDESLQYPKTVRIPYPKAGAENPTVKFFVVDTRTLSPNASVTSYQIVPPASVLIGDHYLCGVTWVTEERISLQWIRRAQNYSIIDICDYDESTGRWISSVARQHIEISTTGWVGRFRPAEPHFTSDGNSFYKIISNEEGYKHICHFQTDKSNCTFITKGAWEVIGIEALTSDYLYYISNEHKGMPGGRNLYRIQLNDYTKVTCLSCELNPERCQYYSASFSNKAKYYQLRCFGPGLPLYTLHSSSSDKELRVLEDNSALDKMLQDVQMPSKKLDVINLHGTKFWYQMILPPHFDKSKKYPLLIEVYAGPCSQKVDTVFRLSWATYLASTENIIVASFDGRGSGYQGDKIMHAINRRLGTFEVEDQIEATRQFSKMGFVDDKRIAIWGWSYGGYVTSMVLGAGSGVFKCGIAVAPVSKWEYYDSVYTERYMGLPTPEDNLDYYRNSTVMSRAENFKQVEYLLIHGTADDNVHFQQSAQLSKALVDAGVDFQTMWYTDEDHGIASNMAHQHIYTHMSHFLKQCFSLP
Experimental: 500 μl test compound in a concentration range of 1*10^−5 M-1*10^−11M were admixed with and 500 μl HEPES buffer (40 mM, pH7.6; ion strength=0.125) and 20 μl of diluted DPIV. Release of the inhibitor from the prodrug as well the monitoring reaction (DPIV-catalyzed hydrolysis of Gly-Pro-pNA) were started by addition of a mixture of 10 μl of APN stock solution (4.9 mg/ml, Sigma, Taufkirchen, Germany) with 250 μl of the substrate (Gly-Pro-pNA, 0.05-4 mM). Development of yellow color due to 4-nitroaniline release were monitored at λ=405 nm for up to 180 min using UV1 Spectrometer (ThermoSpectronic).
The Ki-values were calculated by fitting the first derivative of the time-progress curves using Graphit (v.4.0.13, Erithacus Software, Ltd, UK) and an equation for an unstable competitive inhibitor.
The half-life (t1/2) was calculated by plotting the enzyme activity versus reaction time.

[3] = tested on: Wistar rats; assay: Glucose tolerance (OGTT) in Wistar rats under identical experimental conditions; format: in vivo; details: 100 mg/kg b.w. oral

porcine DPIV, sequence (P22411 whole entry): as above

Row | IC50 ([1]; HEPES pH7.6, read-out: IC50) | Ki ([2]; read-out: Ki) | T1/2 (half-life, from enzyme activity versus reaction time) [2] | SMILES | also measured
1 | 79.7 µM | < 0.1 µM |  | CC(C)[C@H](NC(=O)[C@H](C)N)C(=O)N1CCC[C@H]1C(=O)CSCc1c(Cl)cccc1Cl [2-{[(2,6-Dichlorobenzyl)thiomethyl]carbonyl}-1-N-[{(L)-Alanyl}-(L)-Valinyl]-(2S)-pyrrolidine] | 
2 | 1100 µM |  |  | CC(C)[C@H](NC(=O)[C@H](C)N)C(=O)N1CCC[C@H]1C(=O)c1ccccn1 [H-Ala Val-Pro-CO-(2-Pyridinyl)*TFA, 2-[(Pyridin-2-yl)carbonyl]-1-N-[{(L)-Alanyl}-(L)-Valinyl]-(2S)-pyrrolidine trifluoroacetate] | 
3 |  | 0.107 µM | 5.1 min | C[C@H](N)C(=O)NCC(=O)N1CCC[C@H]1C(=O)c1nc2ccccc2s1.O=C(O)C(F)(F)F [H-Ala-Gly-Pro-CO-Benzothiazole*TFA, 2-[(Benzothiazol-2-yl)carbonyl]-1-N-[{(L)-Alanyl}-Glycyl]-(2S)-pyrrolidine trifluoroacetate] | 
4 |  | 0.0373 µM | 17.0 min | CC(C)[C@H](NC(=O)[C@H](C)N)C(=O)N1CCC[C@H]1C(=O)c1nc2ccccc2s1.O=C(O)C(F)(F)F [H-Ala-Val-Pro-CO-Benzothiazole*TFA, 2-[(Benzothiazol-2-yl)carbonyl]-1-N-[{(L)-Alanyl}-(L)-Valinyl]-(2S)-pyrrolidine trifluoroacetate] | 
5 |  | 0.0332 µM | 15.1 min | CC(C)[C@H](NC(=O)[C@H](C)N)C(=O)N1CCC[C@H]1C(=O)c1nccs1.O=C(O)C(F)(F)F [H-Ala-Val-Pro-CO-Thiazole*TFA, 2-[([1,3]-Thiazol-2-yl)carbonyl]-1-N-[{(L)-Alanyl}-(L)-Valinyl]-(2S)-pyrrolidine trifluoroacetate] | IC50 ([1]; HEPES pH7.6): no inhibition
6 | 4.94 µM |  |  | Br.CC(C)[C@H](NC(=O)CN)C(=O)N1CCC[C@H]1C(=O)COC(=O)c1ccccc1 [H-Gly-Val-Pro-CO—CH2O—CO—Ph*HBr, 2-[(Benzoyloxy-methyl)carbonyl]-1-N-[Glycyl-(L)-Valinyl]-(2S)-pyrrolidine hydrobromide] | Ki [2]: no inhibition
7 |  |  |  | Br.CC(=O)[C@@H]1CCCN1C(=O)[C@@H](NC(=O)[C@@H]1CCCN1C(=O)[C@@H](N)C(C)C)C(C)C [H-Val-Pro-Val-Pro-Me*HBr, 2-Methylcarbonyl-1-N-[(L)-Valinyl-(L)-Prolyl-(L)-Valinyl]-(2S)-pyrrolidine hydrobromide] | AUC test compound [3]: 66.4 mmol·min/L; Improvement ([3]; vs AUC control): 44.1%
